Earlier results in patent publication US20170119783A1, “Method for Treating Cognitive Impairment Associated With Neurodegenerative Disorders” (priority 2014, published 2017).
Like-named read-outs stand apart in the source and are kept apart here.

Legend:
[1] = test system: Plasmodium falciparum
[2] = test system: nucleic acid synthesis; details: relative to artemisinin
[3] = test system: Ehrlich ascots tumor cells
[4] = test system: cancer cells; details: more effective for hepatoma and embryonic lung cells than human gastric cancer cells
[5] = within the group of artemisinin analogs

SMILES | water solubility (in words) | ability to inhibit nucleic acid synthesis, times the activity of artemisinin [2] [times] | efficacy against Ehrlich ascots tumor cells (in words) [3] | other results
CO[C@H]1O[C@@H]2O[C@@]3(C)CC[C@H]4[C@H](C)CC[C@@H]([C@H]1C)[C@@]24OO3 [Artemether] | higher solubility in water | – | – | –
C[C@H]1[C@H](N2CCS(=O)(=O)CC2)O[C@@H]2O[C@@]3(C)CC[C@H]4[C@H](C)CC[C@@H]1[C@@]24OO3 [Artemisone] | – | – | – | antimalarial activity (in words) ([1]; Haynes et al. 2006): high antimalarial activity
C[C@H]1[C@@H](O)O[C@@H]2O[C@@]3(C)CC[C@H]4[C@H](C)CC[C@@H]1[C@@]24OO3 [Dihydroartemisinin] | higher solubility in water | – | – | –
C[C@H]1[C@H](OC(=O)CCC(=O)O)O[C@@H]2O[C@@]3(C)CC[C@H]4[C@H](C)CC[C@@H]1[C@@]24OO3 [artesunate] | – | 100 | – | antimalarial potency, times that of artemisinin ([1]; relative to artemisinin): 5.2 times
C[C@H]1[C@@H](OCc2ccc(C(=O)O)cc2)O[C@@H]2O[C@]3(C)CC[C@H]4[C@H](C)CC[C@@H]1[C@@]24OO3 [sodium artelinate] | – | – | efficacy against Ehrlich ascots tumor cells | –
CCO[C@H]1O[C@@H]2O[C@@]3(C)CC[C@H]4[C@H](C)CC[C@@H]([C@H]1C)[C@@]24OO3 [arteether] | higher solubility in water | 100 | efficacy against Ehrlich ascots tumor cells | –
CCCOC(=O)OC1O[C@@H]2O[C@@]3(C)CC[C@H]4[C@H](C)CC[C@@H]([C@H]1C)[C@@]24OO3 (stereo partly shown) [propylcarbonate dihydroartemisinin] | higher solubility in water | 100 | – | –
C[C@H]1[C@H](OC(=O)CCC(=O)[O-])O[C@@H]2O[C@@]3(C)CC[C@H]4[C@H](C)CC[C@@H]1[C@@]24OO3.[Na+] [sodium artesunate] | – | – | efficacy against Ehrlich ascots tumor cells | –
C[C@@H]1CC[C@H]2[C@@H](C)C(=O)O[C@@H]3O[C@@]4(C)CC[C@@H]1[C@]32OO4 [Artemisinin, (3R,5aS,6R,8aS,9R,12S,12aR)-octahydro-3,6,9-trimethyl-3,12-epoxy-12H-pyr-ano[4,3-j]-1,2-benzodioxepin-10(3H)-one] | poor water solubility | – | efficacy against Ehrlich ascots tumor cells | toxicity to cancer cells in vitro (in words) [4]: toxic to cancer cells in vitro
C[C@@H]1[C@H](OCc2ccc(C(=O)O)cc2)O[C@@H]2O[C@@]3(C)CC[C@@H]4[C@@H](C)CC[C@@H]1[C@]24OO3 [Artelinic acid] | most water-soluble | – | efficacy against Ehrlich ascots tumor cells | stability (in words) [5]: most stable; water solubility (in words) (listed as artelinic acid): higher solubility in water
